Tests used:
[1] = system: Cochliobolus miyabeanus; test: Activity against brown spot of rice caused by Cochliobolus miyabeanus, protective application; type: in vivo; conditions: rice seedlings "Tai-Nong 67", six days after inoculation
Description: (§1) The active compounds, separately or jointly, were prepared as a stock solution comprising 0.25% by weight of active compound in acetone or DMSO. 1% by weight of the emulsifier Uniperol® EL (wetting agent having emulsifying and dispersant action based on ethoxylated alkylphenols) was added to this solution, and the mixture was diluted with water to the desired concentration.
Use Example 1—Activity Against Brown Spot of Rice Caused by Cochliobolus miyabeanus, Protective Application Leaves of potted rice seedlings of the cultivar “Tai-Nong 67” were sprayed to runoff point with an aqueous suspension of the concentration of active compound stated below. The next day, the plants were inoculated with an aqueous spore suspension of Cochliobolus miyabeanus. The test plants were then placed in climatized chambers at 22-24° C. and 95-99% relative atmospheric humidity for six days. The extent of the development of the infection on the leaves was then determined visually.
Evaluation was carried out by determining the percentage of infected leaf area. These percentages were converted into efficacies.
The efficacy (E) is calculated as follows using Abbot's formula: E=(1−α/β)·100 α corresponds to the fungicidal infection of the treated plants in % and β corresponds to the fungicidal infection of the untreated (control) plants in % An efficacy of 0 means that the infection level of the treated plants corresponds to that of the untreated control plants; an efficacy of 100 means that the treated plants are not infected.
The expected efficacies of mixtures of active compounds are determined using Colby's formula (R. S. Colby, Weeds, 15, 20-22, 1967) and compared with the observed efficacies.
Colby's formula: E=x+y−x·y/100 • E expected efficacy, expressed in % of the untreated control, when using the mixture of the active compounds A and B at the concentrations a and b • x efficacy, expressed in % of the untreated control, when using the active compound A at the concentration a y efficacy, expressed in % of the untreated control, when using the active compound B at the concentration b

[2] = system: Corticium sasakii; test: Activity against sheath blight on rice caused by Corticium sasakii; type: in vivo; conditions: rice plants "Tai-Nong 67", after 11 days
Description: as §1
Use Example 2—Activity Against Sheath Blight on Rice Caused by Corticium sasakii
Pots with rice plants of the cultivar “Tai-Nong 67”, were sprayed to runoff point with an aqueous suspension having the concentration of active compounds stated below. The next day, oat grains infected with Corticium sasakii were placed into the pots (in each case 5 grains per pot). The plants were then placed in a chamber at 26° C. and maximum atmospheric humidity. After 11 days, the sheath blight on the untreated but infected control plants had developed to such an extent that the infection could be determined visually in %.
Evaluation was carried out analogously to Example 1.

| SMILES | Efficacy in % of the untreated control ([1]; 4 ppm in the spray liquor) | Efficacy in % of the untreated control ([2]; 4 ppm in the spray liquor) | Efficacy in % of the untreated control ([1]; 1 ppm in the spray liquor) | Efficacy in % of the untreated control ([2]; 1 ppm in the spray liquor) |
| --- | --- | --- | --- | --- |
| CC1CCN(c2c(-c3c(F)cc(F)cc3F)c(Cl)nc3ncnn23)CC1 [I, 5-chloro-7-(4-methylpiperidin-1-yl)-6-(2,4,6-trifluorophenyl)-[1,2,4]triazolo[1,5-a]pyrimidine] | 33% | 37% |  |  |
| N#Cc1c[nH]cc1-c1cccc2c1OC(F)(F)O2 [II (fludioxonil), 4-(2,2-difluorobenzo[1,3]dioxol-4-yl)-1H-pyrrole-3-carbonitrile] | 33% | 6% | 0% | 0% |
